Test results from BindingDB's records for doi:10.1021/jm00160a010 (1986).

Assay: Displacement of [3H]EK from Opioid receptor delta 1 in guinea pig brain membrane
`CN1CC[C@]23c4c5ccc(O)c4O[C@H]2[C@@H](NC(=O)CNC(=O)CNC(=O)CCC(=O)NCC(=O)NCC(=O)N[C@H]2CC[C@@]4(O)[C@H]6Cc7ccc(O)c8c7[C@@]4(CCN6C)[C@H]2O8)CC[C@@]3(O)[C@H]1C5` [1N,4N-di[10,17-dihydroxy-4-methyl-(13R,14S,17S)-12-oxa-4-azapentacyclo[9.6.1.01,13.05,17.07,18]octadeca-7(18),8,10-trien-14-ylcarbamoylmethylcarbamoylmethylcarbamoylmethyl]succinamide] gave a Ki of 50 nM. `CN1CC[C@]23c4c5ccc(O)c4O[C@@H]2[C@H](NC(=O)CNC(=O)CCC(=O)NCC(=O)N[C@@H]2CC[C@]4(O)[C@H]6Cc7ccc(O)c8c7[C@@]4(CCN6C)[C@@H]2O8)CC[C@]3(O)[C@H]1C5` [1N,4N-di[10,17-dihydroxy-4-methyl-(13R,14S,17S)-12-oxa-4-azapentacyclo[9.6.1.01,13.05,17.07,18]octadeca-7(18),8,10-trien-14-ylcarbamoylmethyl]succinamide] gave a Ki of 86 nM. `O=C(CCC(=O)NCC(=O)NCC(=O)N[C@@H]1CC[C@@]2(O)[C@H]3Cc4ccc(O)c5c4[C@@]2(CCN3CC2CC2)[C@H]1O5)NCC(=O)NCC(=O)N[C@@H]1CC[C@@]2(O)[C@H]3Cc4ccc(O)c5c4[C@@]2(CCN3CC2CC2)[C@H]1O5` [1N,4N-di[4-cyclopropylmethyl-10,17-dihydroxy-(13R,14R,17S)-12-oxa-4-azapentacyclo[9.6.1.01,13.05,17.07,18]octadeca-7(18),8,10-trien-14-ylcarbamoylmethylcarbamoylmethyl]succinamide] gave a Ki of 4.9 nM. With `O=C(CCC(=O)NCC(=O)NCC(=O)NCC(=O)N[C@@H]1CC[C@@]2(O)[C@H]3Cc4ccc(O)c5c4[C@@]2(CCN3CC2CC2)[C@H]1O5)NCC(=O)NCC(=O)NCC(=O)N[C@@H]1CC[C@@]2(O)[C@H]3Cc4ccc(O)c5c4[C@@]2(CCN3CC2CC2)[C@H]1O5` [1N,4N-di[4-cyclopropylmethyl-10,17-dihydroxy-(13R,14R,17S)-12-oxa-4-azapentacyclo[9.6.1.01,13.05,17.07,18]octadeca-7(18),8,10-trien-14-ylcarbamoylmethylcarbamoylmethylcarbamoylmethyl]succinamide] the Ki was 6.4 nM. `O=C(CCC(=O)N[C@@H]1CC[C@@]2(O)[C@H]3Cc4ccc(O)c5c4[C@@]2(CCN3CC2CC2)[C@H]1O5)N[C@@H]1CC[C@@]2(O)[C@H]3Cc4ccc(O)c5c4[C@@]2(CCN3CC2CC2)[C@H]1O5` [1N,4N-di[4-cyclopropylmethyl-10,17-dihydroxy-(13R,14R,17S)-12-oxa-4-azapentacyclo[9.6.1.01,13.05,17.07,18]octadeca-7(18),8,10-trien-14-yl]succinamide] gave a Ki of 12 nM. Work on `O=C(CCC(=O)NCC(=O)N[C@@H]1CC[C@@]2(O)[C@H]3Cc4ccc(O)c5c4[C@@]2(CCN3CC2CC2)[C@H]1O5)NCC(=O)N[C@@H]1CC[C@@]2(O)[C@H]3Cc4ccc(O)c5c4[C@@]2(CCN3CC2CC2)[C@H]1O5` [1N,4N-di[4-cyclopropylmethyl-10,17-dihydroxy-(13R,14R,17S)-12-oxa-4-azapentacyclo[9.6.1.01,13.05,17.07,18]octadeca-7(18),8,10-trien-14-ylcarbamoylmethyl]succinamide] yielded a Ki of 7.8 nM. For `CN1CC[C@]23c4c5ccc(O)c4O[C@@H]2[C@H](NC(=O)CNC(=O)CNC(=O)CNC(=O)CCC(=O)NCC(=O)NCC(=O)NCC(=O)N[C@@H]2CC[C@]4(O)[C@H]6Cc7ccc(O)c8c7[C@@]4(CCN6C)[C@@H]2O8)CC[C@]3(O)[C@H]1C5` [1N,4N-di[10,17-dihydroxy-4-methyl-(13R,14S,17S)-12-oxa-4-azapentacyclo[9.6.1.01,13.05,17.07,18]octadeca-7(18),8,10-trien-14-ylcarbamoylmethylcarbamoylmethyl]succinamide], the Ki was 42 nM. For `CN1CC[C@]23c4c5ccc(O)c4O[C@@H]2[C@H](NC(=O)CCC(=O)N[C@@H]2CC[C@]4(O)[C@H]6Cc7ccc(O)c8c7[C@@]4(CCN6C)[C@@H]2O8)CC[C@]3(O)[C@H]1C5` [1N,4N-di[10,17-dihydroxy-4-methyl-(13R,14S,17S)-12-oxa-4-azapentacyclo[9.6.1.01,13.05,17.07,18]octadeca-7(18),8,10-trien-14-yl]succinamide], the Ki was 200 nM.

Assay: Compound was tested for binding affinity against delta opioid receptor in guinea pig brain membrane using [3H]EK as the radioligand
Work on `CN1CC[C@]23c4c5ccc(O)c4O[C@@H]2[C@H](NC(=O)CNC(=O)CNC(=O)CCC(=O)NCC(=O)NCC(=O)N[C@@H]2CC[C@]4(O)[C@H]6Cc7ccc(O)c8c7[C@@]4(CCN6C)[C@@H]2O8)CC[C@]3(O)[C@H]1C5` [1N,4N-di[10,17-dihydroxy-4-methyl-(13S,14R,17R)-12-oxa-4-azapentacyclo[9.6.1.01,13.05,17.07,18]octadeca-7(18),8,10-trien-14-ylcarbamoylmethylcarbamoylmethyl]succinamide] yielded a Ki of 27 nM.
